“Also recorded” adds a separate entry of the source. Where two headings read alike, the source gives them in different places. One block for each compound: values may come before it.
Columns and labels:
FP receptor [1] = molecular target: T1, FP receptor (Homo sapiens, UniProt P43088); test: FLIPR calcium signaling in HEK-293 cells stably transfected with the human FP receptor; type: cell-based; design: expressed in transfected cells; host or cells: HEK-293; conditions: HEK-293 human FP; for concentration at which FP receptor stimulation plateaus / concentration at which the FP receptor is stimulated (calcium signal): FLIPR, Fluo-4; for concentration at which the FP receptor is stimulated (calcium signal): onset of effect; for stimulation of the human FP receptor: calcium signal, about 10^−11 to 10^−8 M
T1 sequence (P43088 whole entry): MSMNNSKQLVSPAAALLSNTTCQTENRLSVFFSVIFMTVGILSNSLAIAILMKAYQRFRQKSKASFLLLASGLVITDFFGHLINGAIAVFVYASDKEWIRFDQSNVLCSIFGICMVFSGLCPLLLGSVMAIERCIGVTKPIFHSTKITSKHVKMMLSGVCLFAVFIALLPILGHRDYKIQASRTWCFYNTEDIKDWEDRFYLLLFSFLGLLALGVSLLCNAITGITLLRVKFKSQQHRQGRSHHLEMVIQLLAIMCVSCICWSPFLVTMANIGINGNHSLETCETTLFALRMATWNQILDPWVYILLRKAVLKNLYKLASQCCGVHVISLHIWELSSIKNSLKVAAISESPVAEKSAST
Protocol: Human embryonic kidney cells of line HEK-293 are stably transfected with an expression vector encoding the human FP receptor. Cells were cultured in low Glucose Dulbecco's Modified Eagles Medium containing 10% fetal calf serum, 2 mM L-glutamine, 100 mg/l sodium pyruvate, 100 U/ml penicillin G, […] streptomycin, 250 μg/ml G418 200 μg/ml hygromycin and 250 ng/ml amphotericin B at 37° C. with 5% CO2. Cells were seeded on poly-D-lysine-coated 96-well plates at 5000/well, and cultured overnight before the experiment. The cells are cultured in the presence, respectively, of: latanoprost-free acid, fluprostenol, Compound A, Compound B, and assayed using a FLIPR (fluorescence imaging plate reader) using the calcium activated fluorescent dye Fluo-4 as an indicator of free intracellular calcium. As stimulation of the FP receptor is known to cause in increase in free intracellular calcium release, this experiment is designed to determine when the test compounds are capable of stimulating the human FP receptor.

[2] = tested on: S91 melanoma cells co-cultured with human dermal fibroblasts; test: DOPA oxidase (tyrosinase) activity in S91 melanoma cells in transwell co-culture with human dermal fibroblasts; type: cell-based; conditions: increasing concentrations 10^−9 to 10^−5 M, 4 days
Protocol: (§1) Human dermal fibroblasts and S91 melanoma cells are cultured in low-glucose Dulbecco's Modified Eagle Medium (DMEM) containing 10% fetal calf serum (FCS) supplemented with 2 mM L-glutamine, 100 mg/l sodium pyruvate, 100 U/ml penicillin G, 100 […] and 250 ng/ml amphotericin B at 37° C. with 5% CO2. For tyrosinase and melanogenesis assays, the FCS concentration is reduced to 1% during the incubation period.
(§2) S91 cells are plated at 10^5 cells/well in 6-well plates and allowed to attach overnight. For transwell studies, cells from a human dermal fibroblast cell line are plated on the transwell insert at 10^3 cells/well and allowed to attach overnight. Melanoma cells are plated in an initial excess over fibroblasts; preferably at a ratio between about 1:30 and about 1:1000, more preferably at a ratio between about 1:50 and about 1:300; most preferably at a ratio of about 1:100. For primary cells, cells are cultured at a ratio of fibroblasts to melanocytes of about 1:2 to about 1:50; preferably about 1:5 to about 1:20, even more preferably about 1:10. The added test agents generally stimulate fibroblast proliferation; thus the use of the transwell permits separate enumeration of the melanocytes.
(§3) Test agents are added every other day of the assay period, with no exchange of medium.
(§4) For DOPA oxidase (tyrosinase) activity, the cells were incubated for four days in this case and the S91 cells were collected in a lysis buffer. The cell suspension was subjected to one freeze/thaw cycle (−80° C.) and vortexed to extract the cytosolic cell contents. After centrifugation for 30 minutes at 16,000×g at 4° C., aliquots of the supernatant were used in a Bradford assay to determine protein concentration or incubated with d-DOPA or l-DOPA as substrates. The optical density was measured for up to 6 hours at 490 nm.
Cloudman S91 melanoma cells (ATCC CCL-53.1) were cultured either in the presence or absence of human dermal fibroblast cells (ATCC CRL-2097) as described above. The added drugs were: arachidonic acid, anandamide, Compound C, Compound A, Compound D, Compound […], and Compound E.

S91 melanoma cells [3] = test: Cell proliferation assay of S91 melanoma cells; type: cell-based
Protocol: as §1, §2, §3
For the cell proliferation assay, melanoma cells were washed with Hanks BSS, trypsinized and counted with a hemacytometer.

iris [4] = conditions: monkey, in vivo
Protocol: (§5) The other eye is left untreated. A total of 8 animals is treated within each treatment group. At the end of the one year study period darkening of the treated eye is compared to a photograph of the same eye prior to treatment, and scored using the following scale:

S91 cells = conditions: native S91 cells; cited from earlier work
FP receptor [5] = molecular target: T1, FP receptor; design: host or cells: S91 'Cloudman' melanoma cells, stably transfected; conditions: cited from earlier work
[6] = tested on: S91 "Cloudman" melanoma cell line; conditions: cited from earlier work
S91 melanoma cells [7] = test: DOPA oxidase (tyrosinase) activity in S91 melanoma cells cultured alone; type: cell-based
Protocol: as §1, §2, §3, §4
Cloudman S91 melanoma cells (ATCC CCL-53.1) were cultured either in the presence or absence of human dermal fibroblast cells (ATCC CRL-2097) as described above. […]

iris [8] = test: One year topical monkey study, darkening of the iris; conditions: once daily 35 microliter drop in one eye for one year; scale 0-3; untreated eyes baseline 1
Protocol: as §5

iris [9] = conditions: patients; cited from earlier work
S91 melanoma cells [10] = test: Melanin assay in S91 cells; type: cell-based; conditions: S91 cells not in transwell cultures
Protocol: as §1
as §2, with “The added test agents generally stimulate fibroblast proliferation; thus the use of the transwell permits separate enumeration of the melanocytes.” left out
For the melanin assay, cells were incubated for 5 days. […] After centrifugation for 30 min at 16,000×g at room temperature, the optical density of the supernatant was measured at 475 nm and compared to a standard curve obtained with synthetic melanin.

melanocytes = conditions: cited from earlier work

- concentration at which FP receptor stimulation plateaus (FP receptor [1]): about 10^−8 M
- concentration at which the FP receptor is stimulated (calcium signal) (FP receptor [1]): about 10^−11 M
- stimulation of the human FP receptor (FP receptor [1]): stimulate
Compound: O=C(O)CCC/C=C\C[C@@H]1[C@@H](/C=C/[C@@H](O)COc2cccc(C(F)(F)F)c2)[C@H](O)C[C@@H]1O (racemic) [fluprostenol]
- tyrosinase (DOPA oxidase) activity [2]: stimulate increased production of tyrosinase; also recorded: dose-dependent effect
- S91 cell proliferation (S91 melanoma cells [3]; 10^−9 to 10^−5 M, with or without fibroblast co-cultures): No effect

- darkening of the treated eye (iris), score (iris [4]): about 1.1
Compound: CCNC(=O)CCC/C=C\C[C@@H]1[C@@H](/C=C/[C@@H](O)CCc2ccccc2)[C@H](O)C[C@@H]1O [Compound A]
- tyrosinase (DOPA oxidase) activity [2]: no significant changes

Compound: CCCCC[C@H](O)/C=C/[C@@H]1[C@@H](C/C=C\CCCC(=O)O)[C@@H](O)C[C@H]1O [PGF2α]
- calcium signal (S91 cells): failed to stimulate a calcium signal
- DOPA oxidase (tyrosinase) activity and melanin formation compared with native S91 cells (FP receptor [5]; FP receptor transfectants): indistinguishable
- calcium signal (FP receptor [5]; FP receptor transfected S91 cells): did not generate a calcium signal
- melanogenesis / melanin production [6]: only at quite high concentrations

Compound: CCCCC/C=C\C/C=C\C/C=C\C/C=C\CCCC(=O)NCCO [anandamide]
- tyrosinase (DOPA oxidase) activity [2]: no significant increase

Compound: CCCCC/C=C\C/C=C\C/C=C\C/C=C\CCCC(=O)O [arachidonic acid]
- tyrosinase (DOPA oxidase) activity [2]: significant increase
- tyrosinase (DOPA oxidase) activity (S91 melanoma cells [7]; S91 without fibroblasts, increasing concentrations 10^−9 to 10^−5 M, 4 days): smaller increase

- darkening of the treated eye (iris), score (iris [8]): 2
- concentration at which FP receptor stimulation plateaus (FP receptor [1]): about 10^−8 M
- concentration at which the FP receptor is stimulated (calcium signal) (FP receptor [1]): about 10^−11 M
- stimulation of the human FP receptor (FP receptor [1]): stimulate
Compound: CC(C)OC(=O)CCC/C=C\C[C@@H]1[C@@H](CC[C@@H](O)CCc2ccccc2)[C@H](O)C[C@@H]1O [latanoprost]
- tyrosinase (DOPA oxidase) activity [2]: stimulate increased production of tyrosinase; also recorded: dose-dependent effect
- tyrosinase activity (S91 melanoma cells [7]; S91 cells not in transwell cultures, 10^−5 M): enhancement
- DOPA oxidase activity (S91 melanoma cells [7]; S91 cells not in transwell cultures, up to 10^−6 M): no appreciable change
- S91 cell proliferation (S91 melanoma cells [3]; 10^−5 M, with or without fibroblasts): decrease
- S91 cell proliferation (S91 melanoma cells [3]; 10^−9 to 10^−6 M, with or without fibroblasts): little effect
- human eyes with increase in brown pigment in the iris (iris [9]): 5-15%
- melanin formation (S91 melanoma cells [10]; 10^−5 M): enhancement
- melanin formation (S91 melanoma cells [10]; up to 10^−6 M): no appreciable change

Compound: melanocyte-stimulating hormone [MSH]
- melanogenesis / melanin production [6]: able to simulate melanogenesis
- activity of tyrosinase (melanocytes): appears to stimulate
- expression or activity of TRP2 and TRP1 (melanocytes): does not increase

Reference: patent US6713268B2, “Methods of identifying ocular hypotensive compounds having reduced hyperpigmentation” (Allergan, Inc., priority 2001, dated 2004)
